Entries after “also recorded” stand apart in the source; their conditions may differ.
Columns and labels:
P. gingivalis = conditions: cited from earlier work
Rgp = conditions: cited from earlier work
[1] = system: differentiated SH-SY5Y neuronal cells exposed to Kgp and/or RgpB; experiment: gingipain induced toxicity in differentiated SH-SY5Y neuronal cells; format: cell-based; conditions: 100 nM Kgp and/or RgpB, 24 hours, microscopy
Description: SH-SY5Y neuroblastoma cells were cultured and differentiated in the presence of 5 uM retinoic acid based on established methods. Differentiation into neuronal cells was verified by observation of neurite outgrowth. The differentiated cells were exposed to 100 nM Kgp and/or RgpB for 24 hours, in the presence or absence of gingipain inhibitors. Results were recorded using a digital microscope camera.

Compound | growth inhibition of P. gingivalis (P. gingivalis) | protection against gingipain induced toxicity / cell death [1] | other results
CC(C)C[C@H](NC(=O)[C@@H](O)[C@H](N)Cc1ccccc1)C(=O)O [bestatin] | selectively inhibits growth |  | 
phenylalanyl-ureido-citrullinyl-valyl-cycloarginal [FA-70C1] | exhibits growth-inhibitory activity |  | Rgp inhibition (Rgp): potent Rgp inhibitor
CN(C)C(=O)[C@H](CCCCN)NC(=O)C(=O)[C@H](CCCN=C(N)N)NC(=O)[C@H](CCCCN)NC(=O)OCc1ccccc1 [Kyt-1] |  | can protect neurons; also recorded: effective but less so | 
CN(NC(=O)CC[C@H](NC(=O)OCc1ccccc1)C(=O)N[C@@H](CCCCN)C(=O)C(=O)NCc1ccccc1)c1ccccc1 [Kyt-36] |  | can protect neurons; also recorded: more protective than Rgp inhibitors; also recorded: largely blocks gingipain induced toxicity | protection against gingipain induced toxicity / cell death ([1]; listed as Kyt 36): prevented gingipain induced neurodegeneration
NC(=O)CI [iodoacetamide] |  | blocks toxicity | protection against gingipain induced toxicity / cell death ([1]; listed as Iodoacetamide): prevents this effect

— patent US20170014468A1, “METHODS OF USE FOR THERAPEUTICS TARGETING THE PATHOGEN PORPHYROMONAS GINGIVALIS” (Cortexyme, Inc., priority 2014, published 2017)
